Drawing on publication PMC7224190, “Pharmacological inhibition of PRMT7 links arginine monomethylation to the cellular stress response” (Nature Communications, 2020), this text covers remaining activity for 2 compounds.

Holding throughout (test): biochemical
What all share (settings): read-out: % of control remaining

One experiment concerns the target PRC2-EZH2 (Homo sapiens, UniProt Q15910). The arrangement: radiometric methyltransferase selectivity assay with tritiated SAM, per cent activity.
The target in another experiment is T1, PRMT7 (Homo sapiens, UniProt Q9NVM4).
T1 sequence (Q9NVM4 1-692): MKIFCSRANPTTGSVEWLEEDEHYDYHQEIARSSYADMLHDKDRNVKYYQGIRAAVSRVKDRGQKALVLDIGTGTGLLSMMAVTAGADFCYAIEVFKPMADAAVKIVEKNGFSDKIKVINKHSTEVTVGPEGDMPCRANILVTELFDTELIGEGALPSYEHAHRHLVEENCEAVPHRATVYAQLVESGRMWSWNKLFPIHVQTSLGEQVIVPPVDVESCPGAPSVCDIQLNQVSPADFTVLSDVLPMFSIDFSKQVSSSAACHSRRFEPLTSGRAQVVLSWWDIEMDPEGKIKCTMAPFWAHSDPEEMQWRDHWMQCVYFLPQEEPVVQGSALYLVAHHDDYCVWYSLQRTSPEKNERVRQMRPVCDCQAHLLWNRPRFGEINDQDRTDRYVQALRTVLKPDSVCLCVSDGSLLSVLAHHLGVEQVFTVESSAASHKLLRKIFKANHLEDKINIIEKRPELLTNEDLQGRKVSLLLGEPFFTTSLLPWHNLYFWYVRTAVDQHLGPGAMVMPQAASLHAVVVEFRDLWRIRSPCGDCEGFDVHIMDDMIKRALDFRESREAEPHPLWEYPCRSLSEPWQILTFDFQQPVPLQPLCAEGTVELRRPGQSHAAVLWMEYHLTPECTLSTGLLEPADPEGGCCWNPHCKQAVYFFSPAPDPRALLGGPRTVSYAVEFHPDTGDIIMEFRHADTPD
More on the design: full-length; radiometric methyltransferase selectivity assay with tritiated SAM, per cent activity. As to the method: (§1) The methyltransferase selectivity was assessed at two compound concentrations of 1 and 10 μM by radiometric assays using tritiated-SAM. For methyltransferases: MLL1, MLL3, EZH1 (PRC2), and EZH2 (PRC2), G9a, GLP, SUV39H1, SUV39H2, SUV420H1, SUV420H2, SETD2, SETD8, SETDB1, SETD7, PRMT1, PRMT3, PRMT4, PRMT5/ MEP50 complex, PRMT6, PRMT7, PRMT8, PRMT9, PRDM9, SMYD2, SMYD3, DNMT1, and BCDIN3D the incorporation of a tritium-labeled methyl group into biotinylated substrate was monitored using scintillation proximity assay (SPA). Briefly, a 10 μL reaction containing ^3H-SAM and substrate at concentrations close to the apparent Km values for each enzyme (balanced conditions) was prepared. The reactions were quenched with 10 μL of 7.5 M guanidine hydrochloride; 180 μL of 20 mM Tris buffer (pH 8.0) were added, and the mixture was transferred to a 96-well FlashPlate and incubated for 1 h. The counts per minute (CPM) was measured on a TopCount plate reader. The CPM in the absence of compound or enzyme was defined as 100% activity and background (0%), respectively, for each dataset[74]–[76]. Selectivity of SGC8158 against 342 kinases was evaluated in a kinase panel TR-FRET assay at 1 and 0.1 μM compound in duplicates as described before. Briefly, tagged kinases were incubated with compound and staurosporine-based fluorescent probe where the binding was detected using Tb conjugated anti-tag antibody energy transfer to the probe. Excitation wavelength was 337 nm and fluorescent emission signal was measured for Tb (486 nm) and fluorescent probe (BODIPY, 515 nm). Specific and non-specific binding was determined in the absence and presence of unlabeled staurosporine.

A further experiment has as its target T2, SETD7 (Homo sapiens, UniProt Q8WTS6).
T2 sequence (Q8WTS6 1-366): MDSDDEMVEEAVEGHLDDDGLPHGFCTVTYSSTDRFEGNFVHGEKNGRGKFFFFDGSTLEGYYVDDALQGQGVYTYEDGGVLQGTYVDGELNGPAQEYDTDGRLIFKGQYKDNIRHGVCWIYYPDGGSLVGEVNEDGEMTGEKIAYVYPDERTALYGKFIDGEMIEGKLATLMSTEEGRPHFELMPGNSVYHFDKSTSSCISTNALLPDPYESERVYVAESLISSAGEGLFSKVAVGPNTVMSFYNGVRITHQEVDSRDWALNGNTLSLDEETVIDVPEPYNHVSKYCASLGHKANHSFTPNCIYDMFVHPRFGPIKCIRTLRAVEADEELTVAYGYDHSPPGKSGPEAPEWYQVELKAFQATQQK
More on the design: radiometric methyltransferase selectivity assay with tritiated SAM, per cent activity. How it is done: as §1

For a further experiment, the target named is T3, SETD8 (Homo sapiens, UniProt Q9NQR1).
T3 construct: gene KMT5A
T3 sequence (Q9NQR1 1-393): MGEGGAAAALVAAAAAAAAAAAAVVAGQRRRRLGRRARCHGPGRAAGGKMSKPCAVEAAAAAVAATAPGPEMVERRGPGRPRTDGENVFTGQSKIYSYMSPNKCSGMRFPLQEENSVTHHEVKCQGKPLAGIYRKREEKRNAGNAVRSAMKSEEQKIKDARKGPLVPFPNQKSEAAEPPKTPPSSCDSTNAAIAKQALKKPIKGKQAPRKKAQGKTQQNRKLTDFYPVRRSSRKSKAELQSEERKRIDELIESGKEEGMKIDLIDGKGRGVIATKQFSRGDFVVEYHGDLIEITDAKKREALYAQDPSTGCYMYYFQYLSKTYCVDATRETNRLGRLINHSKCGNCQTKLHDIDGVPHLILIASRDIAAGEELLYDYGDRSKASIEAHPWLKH
More on the design: radiometric methyltransferase selectivity assay with tritiated SAM, per cent activity. As to the method:
as §1

Another experiment concerns the target PRC2-EZH1 (Homo sapiens, UniProt Q92800). More on the design: radiometric methyltransferase selectivity assay with tritiated SAM, per cent activity. How it is done:
as §1

Another experiment addresses SUV39H2 (Homo sapiens, UniProt Q9H5I1). The arrangement: radiometric methyltransferase selectivity assay with tritiated SAM, per cent activity. As to the method:
as §1

Chain of PRC2-EZH1 (Q92800 whole entry): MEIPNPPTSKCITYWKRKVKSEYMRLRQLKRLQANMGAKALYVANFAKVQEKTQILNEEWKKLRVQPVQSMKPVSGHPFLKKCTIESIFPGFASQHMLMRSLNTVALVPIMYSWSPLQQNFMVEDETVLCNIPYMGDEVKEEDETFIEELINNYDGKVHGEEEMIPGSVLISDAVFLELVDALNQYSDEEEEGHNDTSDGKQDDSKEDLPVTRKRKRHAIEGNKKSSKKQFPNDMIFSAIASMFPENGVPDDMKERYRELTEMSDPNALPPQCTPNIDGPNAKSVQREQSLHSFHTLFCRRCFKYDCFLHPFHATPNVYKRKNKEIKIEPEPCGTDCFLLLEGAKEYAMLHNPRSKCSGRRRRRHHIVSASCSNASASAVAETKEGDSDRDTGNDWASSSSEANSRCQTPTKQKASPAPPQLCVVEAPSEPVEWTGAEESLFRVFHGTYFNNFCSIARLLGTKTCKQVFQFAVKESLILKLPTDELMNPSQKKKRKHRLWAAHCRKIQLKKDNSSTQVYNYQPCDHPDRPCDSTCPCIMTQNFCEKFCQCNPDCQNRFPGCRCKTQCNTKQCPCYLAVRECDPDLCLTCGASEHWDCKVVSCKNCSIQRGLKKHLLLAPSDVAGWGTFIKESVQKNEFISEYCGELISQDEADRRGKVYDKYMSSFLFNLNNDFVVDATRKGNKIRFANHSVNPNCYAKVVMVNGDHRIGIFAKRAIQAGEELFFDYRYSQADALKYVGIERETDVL
Chain of PRC2-EZH1 (O75530 whole entry partner): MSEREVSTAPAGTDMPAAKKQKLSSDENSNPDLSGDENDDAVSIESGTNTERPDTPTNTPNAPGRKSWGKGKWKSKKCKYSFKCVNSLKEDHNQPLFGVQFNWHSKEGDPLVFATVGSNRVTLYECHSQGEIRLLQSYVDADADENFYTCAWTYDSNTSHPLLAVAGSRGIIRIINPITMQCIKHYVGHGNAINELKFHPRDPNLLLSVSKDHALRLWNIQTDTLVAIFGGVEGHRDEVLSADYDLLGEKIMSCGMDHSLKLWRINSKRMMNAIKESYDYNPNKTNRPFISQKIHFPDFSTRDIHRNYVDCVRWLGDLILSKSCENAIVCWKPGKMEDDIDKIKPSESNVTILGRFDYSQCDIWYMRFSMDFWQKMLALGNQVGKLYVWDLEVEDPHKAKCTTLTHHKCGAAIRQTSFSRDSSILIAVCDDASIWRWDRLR
Chain of PRC2-EZH1 (Q15022 whole entry partner): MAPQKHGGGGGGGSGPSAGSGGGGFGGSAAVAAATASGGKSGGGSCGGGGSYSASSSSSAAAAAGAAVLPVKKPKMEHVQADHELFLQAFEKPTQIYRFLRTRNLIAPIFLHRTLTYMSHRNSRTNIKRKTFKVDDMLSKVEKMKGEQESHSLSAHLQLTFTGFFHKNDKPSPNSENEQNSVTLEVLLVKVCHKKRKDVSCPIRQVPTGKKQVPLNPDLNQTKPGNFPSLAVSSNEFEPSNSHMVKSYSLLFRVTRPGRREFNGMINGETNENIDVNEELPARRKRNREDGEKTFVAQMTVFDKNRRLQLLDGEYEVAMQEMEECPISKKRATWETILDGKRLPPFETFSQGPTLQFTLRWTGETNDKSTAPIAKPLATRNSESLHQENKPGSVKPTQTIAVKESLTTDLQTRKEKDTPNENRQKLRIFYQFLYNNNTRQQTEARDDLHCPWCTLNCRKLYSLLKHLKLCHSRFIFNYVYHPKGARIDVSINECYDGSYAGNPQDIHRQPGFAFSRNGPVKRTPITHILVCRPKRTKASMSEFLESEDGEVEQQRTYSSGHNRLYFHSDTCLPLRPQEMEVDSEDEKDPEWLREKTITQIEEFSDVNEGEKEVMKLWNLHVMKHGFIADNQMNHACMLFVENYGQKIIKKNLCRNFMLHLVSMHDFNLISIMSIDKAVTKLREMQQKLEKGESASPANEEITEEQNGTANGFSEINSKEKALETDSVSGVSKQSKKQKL
Chain of SUV39H2 (Q9H5I1 whole entry): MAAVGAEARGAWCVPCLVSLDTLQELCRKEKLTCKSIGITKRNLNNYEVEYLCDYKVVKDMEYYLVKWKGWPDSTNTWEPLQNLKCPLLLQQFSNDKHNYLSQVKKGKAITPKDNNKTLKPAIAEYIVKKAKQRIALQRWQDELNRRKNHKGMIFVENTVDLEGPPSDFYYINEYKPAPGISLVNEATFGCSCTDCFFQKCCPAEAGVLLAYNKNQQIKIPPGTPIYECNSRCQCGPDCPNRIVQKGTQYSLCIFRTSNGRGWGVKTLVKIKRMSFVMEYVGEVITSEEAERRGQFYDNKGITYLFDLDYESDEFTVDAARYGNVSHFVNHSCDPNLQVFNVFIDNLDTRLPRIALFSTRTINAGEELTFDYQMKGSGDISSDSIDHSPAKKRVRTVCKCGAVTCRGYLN
Chain of PRC2-EZH2 (Q15910 whole entry): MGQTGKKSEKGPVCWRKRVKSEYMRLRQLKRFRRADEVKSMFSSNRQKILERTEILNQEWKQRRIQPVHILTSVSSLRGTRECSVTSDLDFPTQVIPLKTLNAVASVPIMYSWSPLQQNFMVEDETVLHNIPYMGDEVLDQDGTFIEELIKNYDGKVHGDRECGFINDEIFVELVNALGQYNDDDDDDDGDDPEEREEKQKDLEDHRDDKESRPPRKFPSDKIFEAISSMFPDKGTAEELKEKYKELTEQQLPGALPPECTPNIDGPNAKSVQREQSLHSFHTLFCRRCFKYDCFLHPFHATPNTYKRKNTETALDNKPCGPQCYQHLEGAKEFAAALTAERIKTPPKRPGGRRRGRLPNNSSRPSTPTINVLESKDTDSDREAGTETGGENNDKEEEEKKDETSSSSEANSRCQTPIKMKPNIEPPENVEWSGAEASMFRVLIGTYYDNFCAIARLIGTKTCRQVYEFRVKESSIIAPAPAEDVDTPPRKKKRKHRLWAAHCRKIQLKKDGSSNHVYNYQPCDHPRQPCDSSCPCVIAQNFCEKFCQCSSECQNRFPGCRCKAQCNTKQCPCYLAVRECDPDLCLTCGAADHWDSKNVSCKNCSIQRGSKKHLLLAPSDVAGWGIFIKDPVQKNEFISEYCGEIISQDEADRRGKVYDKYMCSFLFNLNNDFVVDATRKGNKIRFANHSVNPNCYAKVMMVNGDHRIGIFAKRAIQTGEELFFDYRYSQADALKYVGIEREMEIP
Chain of PRC2-EZH2 (O75530 whole entry partner): as the sequence (O75530 whole entry partner) above
Chain of PRC2-EZH2 (Q15022 whole entry partner): as the sequence (Q15022 whole entry partner) above

For the compound `CC1(C)O[C@@H]2[C@H](O1)[C@@H](CSCCCCNCc1cccc(-c3ccc(Cl)cc3)c1)O[C@H]2n1cnc2c(N)ncnc21` [SGC8158N], the remaining activity at 1 µM at PRC2-EZH2 turned out to be 93%; at PRMT7 it was 95%; on SETD7, 96%; on SETD8, 99%; at PRC2-EZH1, 92%; on SUV39H2, 103%. The remaining activity at 10 µM at PRC2-EZH2 amounted to 88%; on PRMT7, 75%; on SETD7 it was 89%; at SETD8, 100%; at PRC2-EZH1, 93%; on SUV39H2, 78%.

With `Nc1ncnc2c1ncn2[C@@H]1O[C@H](CSCCCCNCc2cccc(-c3ccc(Cl)cc3)c2)[C@@H](O)[C@H]1O` [SGC8158], the remaining activity at 1 µM came out at 105% at PRC2-EZH2; 2% on PRMT7; 100% on SETD7; 101% on SETD8; 106% on PRC2-EZH1; 103% at SUV39H2. Further, the remaining activity at 10 µM at PRC2-EZH2 came to 94%; at PRMT7, 0%; on SETD7, 100%; on SETD8, 102%; at PRC2-EZH1, 100%; at SUV39H2 it was 102%.
